# Results published in ChEMBL document CHEMBL2406902, “Potent and Orally Bioavailable GPR142 Agonists as Novel Insulin Secretagogues for the Treatment of Type 2 Diabetes” (ACS Med Chem Lett, 2013).
# Activity calls are given as the source filed them. No cut-off for these calls is given here.
# Key:
# [1] = target: T1, Probable G-protein coupled receptor 142 (Homo sapiens, UniProt Q7Z601); test: Agonist activity at human GPR142 transfected in HEK293 cells after 1 hr by inositol phosphate accumulation assay; type: functional, cell-based
# T1 sequence (Q7Z601 whole entry): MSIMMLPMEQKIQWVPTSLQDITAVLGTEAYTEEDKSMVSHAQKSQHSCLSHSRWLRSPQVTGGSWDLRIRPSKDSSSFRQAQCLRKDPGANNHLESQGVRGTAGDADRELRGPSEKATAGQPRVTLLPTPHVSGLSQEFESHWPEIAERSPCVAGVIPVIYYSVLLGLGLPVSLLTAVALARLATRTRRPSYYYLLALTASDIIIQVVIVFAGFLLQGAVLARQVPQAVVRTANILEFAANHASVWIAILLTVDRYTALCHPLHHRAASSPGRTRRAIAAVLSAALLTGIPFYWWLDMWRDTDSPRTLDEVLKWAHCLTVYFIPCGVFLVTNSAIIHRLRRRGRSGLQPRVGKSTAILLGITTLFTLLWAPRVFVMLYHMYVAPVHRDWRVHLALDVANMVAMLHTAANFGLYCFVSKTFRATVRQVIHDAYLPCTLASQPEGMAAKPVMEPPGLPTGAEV
# [2] = Metabolic stability in mouse liver microsomes assessed as compound remaining at 1 uM after 15 mins by LC/MS analysis; type: ADME, Microsome; details: read-out: Stability
# [3] = Permeability of the compound at pH 7.4 by PAMPA; type: ADME; details: read-out: permeability
# [4] = Permeability of the compound at pH 5 by PAMPA; type: ADME; details: read-out: permeability
# [5] = Lipophilicity, log D of the compound at pH 7.4; type: physicochemical; details: buffer
# [6] = Metabolic stability in monkey liver microsomes assessed as compound remaining at 1 uM after 30 mins by LC/MS analysis; type: ADME, Macaca mulatta, Microsome; details: rhesus monkey, read-out: Stability
# [7] = Metabolic stability in human liver microsomes assessed as compound remaining at 1 uM after 30 mins by LC/MS analysis; type: ADME, Microsome; details: read-out: Stability
# [8] = Metabolic stability in human liver microsomes assessed as compound remaining at 1 uM after 15 mins by LC/MS analysis; type: ADME, Microsome; details: read-out: Stability
# [9] = Metabolic stability in rat liver microsomes assessed as compound remaining at 1 uM after 30 mins by LC/MS analysis; type: ADME, Microsome; details: read-out: Stability
# [10] = Half life in monkey at 1 mg/kg, po; type: ADME, organism-based, Macaca mulatta; set-up: dose 1 mg/kg, route oral; details: rhesus monkey, in vivo
# Mus musculus [11] = test: Antidiabetic activity in po bolus dosed ob/ob mouse assessed as increase in plasma insulin level after 15 to 20 mins; type: functional, organism-based
# Mus musculus [12] = test: Antidiabetic activity in po dosed C57BL/6J mouse assessed as decrease in blood glucose level administered 30 mins followed by glucose challenge by OGTT; type: functional
# [13] = Clearance in monkey at 0.5 mg/kg, iv; type: ADME, organism-based, Macaca mulatta; set-up: dose 0.5 mg/kg, route intravenous; details: rhesus monkey, in vivo
# [14] = Volume of distribution at steady state in monkey at 0.5 mg/kg, iv; type: ADME, organism-based, Macaca mulatta; set-up: dose 0.5 mg/kg, route intravenous; details: rhesus monkey, in vivo, read-out: Vdss
# [15] = Oral bioavailability in monkey at 1 mg/kg; type: ADME, organism-based, Macaca mulatta; details: rhesus monkey, in vivo
# Cytochrome P450 3A4 = Cytochrome P450 3A4 (Homo sapiens, UniProt P08684); test: Inhibition of CYP3A4 (unknown origin); type: ADME
# Cynomolgus monkey [16] = test: Antidiabetic activity in po dosed cynomolgus monkey having impaired glucose tolerance assessed as decrease in blood glucose level administered 60 mins for once a week followed by glucose challenge by OGTT; type: functional, organism-based; details: Macaca fascicularis
# Cynomolgus monkey [17] = test: Antidiabetic activity in cynomolgus monkey having impaired glucose tolerance assessed as decrease in blood glucose level at 10 mg/kg, po administered 60 mins for once a week followed by glucose challenge by OGTT; type: functional, organism-based; set-up: dose 10 mg/kg; details: Macaca fascicularis
# Cynomolgus monkey [18] = test: Antidiabetic activity in cynomolgus monkey having impaired glucose tolerance assessed as decrease in blood glucose level at 10 mg/kg administered 60 mins for once a week followed by glucose challenge by OGTT; type: functional, organism-based; set-up: dose 10 mg/kg; details: Macaca fascicularis
# Mus musculus [19] = test: Antidiabetic activity in C57BL/6J mouse assessed as decrease in blood glucose level at 10 mg/kg administered 30 mins followed by glucose challenge by OGTT; type: functional, organism-based; set-up: dose 10 mg/kg
# Mus musculus [20] = test: Antidiabetic activity in sc dosed mouse assessed as improvement of glucose tolerance; type: functional, organism-based
# Pancreatic islet [21] = test: Antidiabetic activity in rat primary pancreatic islets assessed as potentiation of insulin secretion under low glucose condition at 1 to 100 uM after 60 mins; type: functional
# Pancreatic islet [22] = test: Antidiabetic activity in rat primary pancreatic islets assessed as potentiation of insulin secretion under high glucose condition at 1 to 100 uM after 60 mins; type: functional
# Chain of Cytochrome P450 3A4 (P08684 whole entry): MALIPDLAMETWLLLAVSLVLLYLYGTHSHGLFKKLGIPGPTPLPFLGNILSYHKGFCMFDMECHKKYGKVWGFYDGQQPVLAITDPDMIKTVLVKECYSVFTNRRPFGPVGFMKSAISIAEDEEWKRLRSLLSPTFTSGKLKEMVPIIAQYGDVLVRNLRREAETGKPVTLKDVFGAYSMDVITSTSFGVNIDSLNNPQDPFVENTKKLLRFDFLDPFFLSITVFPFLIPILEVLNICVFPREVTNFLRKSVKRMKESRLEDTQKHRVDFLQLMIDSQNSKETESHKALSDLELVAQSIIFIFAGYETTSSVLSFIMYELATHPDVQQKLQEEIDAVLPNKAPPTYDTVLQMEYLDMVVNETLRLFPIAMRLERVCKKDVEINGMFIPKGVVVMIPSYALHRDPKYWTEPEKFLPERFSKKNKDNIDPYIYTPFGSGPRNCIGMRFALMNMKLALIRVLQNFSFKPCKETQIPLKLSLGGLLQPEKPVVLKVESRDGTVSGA
compound,measurement,setting,value
CCCc1c(C(=O)NC(C)(C)c2ccncc2)cnn1-c1ncc(C)c(-c2cccs2)n1,EC50,[1]; read-out: EC50,5 nM
same,"remaining at 0.25 h, 1 µM",[2],2%
CCOCc1c(C(=O)NCc2cncn2C)cnn1-c1ncc(C)c(-c2cccs2)n1,Papp,[3],4 ×10⁻⁶ cm/s
same,Papp,[4],2 ×10⁻⁶ cm/s
same,logD,[5],2.2
same,EC50,[1]; read-out: EC50,1.3 nM
same,"remaining at 0.5 h, 1 µM",[6],34%
same,"remaining at 0.5 h, 1 µM",[7],71%
CCCCc1c(C(=O)NCc2cnc(C)n2C)cnn1-c1ncc(C)c(-c2cccs2)n1,"remaining at 0.25 h, 1 µM",[8],20%
same,EC50,[1]; read-out: EC50,30 nM
same,"remaining at 0.25 h, 1 µM",[2],6%
CCC(C)c1c(C(=O)NCc2ccncc2)cnn1-c1ncc(C)c(-c2cccs2)n1 (stereo not given),EC50,[1]; read-out: EC50,1200 nM
CCCc1c(C(=O)NCc2ccncc2)cnn1-c1ncc(C)c(-c2cccs2)n1,EC50,[1]; read-out: EC50,250 nM
same,"remaining at 0.25 h, 1 µM",[2],1%
CCCCc1c(C(=O)NCc2cncn2CC(=O)O)cnn1-c1ncc(C)c(-c2cccs2)n1,EC50,[1]; read-out: EC50,0.2 nM
same,"remaining at 0.25 h, 1 µM",[2],93%
CCCc1c(C(=O)NCc2cc(C)no2)cnn1-c1ncc(C)c(-c2cccs2)n1,EC50,[1]; read-out: EC50,> 20000 nM
same,"remaining at 0.25 h, 1 µM",[2],11%
CCCCc1c(C(=O)NCc2ccncc2)cnn1-c1ncc(C)c(-c2cccs2)n1,EC50,[1]; read-out: EC50,7 nM
CCCCc1c(C(=O)NCc2ccnn2C)cnn1-c1ncc(C)c(-c2cccs2)n1,EC50,[1]; read-out: EC50,90 nM
same,"remaining at 0.25 h, 1 µM",[2],13%
CCCCc1c(C(=O)NC2CCCc3ncn(C)c32)cnn1-c1ncc(C)c(-c2cccs2)n1 (stereo not given),"remaining at 0.25 h, 1 µM",[8],22%
same,EC50,[1]; read-out: EC50,100 nM
same,"remaining at 0.25 h, 1 µM",[2],5%
CCCCc1c(C(=O)NCc2c(C)ncn2C)cnn1-c1ncc(C)c(-c2cccs2)n1,"remaining at 0.25 h, 1 µM",[8],19%
same,EC50,[1]; read-out: EC50,1 nM
CCOCc1c(C(=O)NCc2cncn2C)cnn1-c1ncc(C)c(OCC)n1,Papp,[3],2.9 ×10⁻⁶ cm/s
same,Papp,[4],1.2 ×10⁻⁶ cm/s
same,EC50,[1]; read-out: EC50,96 nM
same,"remaining at 0.5 h, 1 µM",[6],66%
same,"remaining at 0.5 h, 1 µM",[9],77%
same,"remaining at 0.5 h, 1 µM",[7],77%
CCOCc1c(C(=O)NCc2cncn2C)cnn1-c1ncc(C)c(N2CCCCC2)n1,half-life,[10],72 min
same,Activity,Mus musculus [11],Dose-dependent effect
same,Papp,[3],3.5 ×10⁻⁶ cm/s
same,Activity,Mus musculus [12],Dose-dependent effect
same,ED50,Mus musculus [12]; 0.5 h,3.3 mg/kg
same,clearance,[13],16.7 mL/min/kg
same,Vd,[14],0.77 L/kg
same,Papp,[4],1.5 ×10⁻⁶ cm/s
same,EC50,[1]; read-out: EC50,22 nM
same,bioavailability,[15],26%
same,IC50,Cytochrome P450 3A4,1000 nM
same,"remaining at 0.5 h, 1 µM",[6],61%
same,Activity,Cynomolgus monkey [16],Dose-dependent effect
same,"remaining at 0.5 h, 1 µM",[9],53%
same,Activity,Cynomolgus monkey [17],Active
same,"remaining at 0.5 h, 1 µM",[7],88%
CCc1c(C(=O)NCc2ccncc2)cnn1-c1ncc(C)c(-c2cccs2)n1,EC50,[1]; read-out: EC50,1000 nM
N[C@@H](CC(=O)N1CCn2c(nnc2C(F)(F)F)C1)Cc1cc(F)c(F)cc1F,Activity,Cynomolgus monkey [18],Active
same,Activity,Mus musculus [19],Active
CCCc1c(C(=O)N(CC)Cc2ccncc2)cnn1-c1ncc(C)c(-c2cccs2)n1,EC50,[1]; read-out: EC50,3000 nM
same,"remaining at 0.25 h, 1 µM",[2],0%
CCOCc1c(C(=O)NCc2cncn2C)cnn1-c1ncc(C)c(N2CCC2)n1,Papp,[3],1.6 ×10⁻⁶ cm/s
same,Papp,[4],0.2 ×10⁻⁶ cm/s
same,EC50,[1]; read-out: EC50,28 nM
same,"remaining at 0.5 h, 1 µM",[6],78%
same,"remaining at 0.5 h, 1 µM",[7],76%
CCCCc1c(C(=O)NCc2sc(C)nc2C)cnn1-c1ncc(C)c(-c2cccs2)n1,EC50,[1]; read-out: EC50,200 nM
same,"remaining at 0.25 h, 1 µM",[2],10%
CCCCCc1c(C(=O)NCc2ccncc2)cnn1-c1ncc(C)c(-c2cccs2)n1,EC50,[1]; read-out: EC50,1000 nM
CCOCc1c(C(=O)NCc2ccncc2)cnn1-c1ncc(C)c(-c2cccs2)n1,EC50,[1]; read-out: EC50,30 nM
COCc1c(C(=O)NCc2ccncc2)cnn1-c1ncc(C)c(-c2cccs2)n1,Activity,Mus musculus [20],Active
same,clearance,[13],21.7 mL/min/kg
same,Vd,[14],1 L/kg
same,EC50,[1]; read-out: EC50,1500 nM
same,bioavailability,[15],3.9%
same,Activity,Pancreatic islet [21],inactive
same,"remaining at 0.25 h, 1 µM",[2],3%
same,Activity,Pancreatic islet [22],Active
CCOCc1c(C(=O)NCc2cncn2C)cnn1-c1ncc(C)c(N2CCCC2)n1,Papp,[3],3.1 ×10⁻⁶ cm/s
same,Papp,[4],0.8 ×10⁻⁶ cm/s
same,logD,[5],2
same,EC50,[1]; read-out: EC50,14 nM
same,"remaining at 0.5 h, 1 µM",[6],46%
same,"remaining at 0.5 h, 1 µM",[9],66%
same,"remaining at 0.5 h, 1 µM",[7],69%
CCCCc1c(C(=O)NCc2ccc(F)cc2)cnn1-c1ncc(C)c(-c2cccs2)n1,EC50,[1]; hek293,Not Active
same,"remaining at 0.25 h, 1 µM",[2],2%
CCCCc1c(C(=O)NCc2c[nH]c3ccccc23)cnn1-c1ncc(C)c(-c2cccs2)n1,EC50,[1]; read-out: EC50,> 20000 nM
CCOCc1c(C(=O)NCc2cncn2C)cnn1-c1ncc(C)c(NC2CCC2)n1,Papp,[3],1.6 ×10⁻⁶ cm/s
same,Papp,[4],0.2 ×10⁻⁶ cm/s
same,EC50,[1]; read-out: EC50,25 nM
same,"remaining at 0.5 h, 1 µM",[6],68%
same,"remaining at 0.5 h, 1 µM",[7],87%
CCCc1c(C(=O)NCc2cn(C)cn2)cnn1-c1ncc(C)c(-c2cccs2)n1,EC50,[1]; read-out: EC50,15000 nM
same,"remaining at 0.25 h, 1 µM",[2],4.7%
CCCCc1c(C(=O)NCc2cncn2C)cnn1-c1ncc(C)c(-c2cccs2)n1,Papp,[3],8 ×10⁻⁶ cm/s
same,"remaining at 0.25 h, 1 µM",[8],70%
same,Papp,[4],3.6 ×10⁻⁶ cm/s
same,EC50,[1]; read-out: EC50,1 nM
same,"remaining at 0.25 h, 1 µM",[2],56%
same,"remaining at 0.5 h, 1 µM",[6],40%
same,"remaining at 0.5 h, 1 µM",[9],54%
same,"remaining at 0.5 h, 1 µM",[7],74%
